# Source: EP0049060A1, “Imidazoles” (BEECHAM GROUP PLC, priority 1980, dated 1982)
# Counter-ions that a name gives are not always drawn. Like-named read-outs stand apart in the source and are kept apart here.
# How the values were obtained:
# mice [1] = assay: Prevention of Reserpine-induced Hypothermia; format: in vivo; settings: Mus musculus, p.o., oral doses 24, 18 and 2 hours before 1 mg/kg i.v. reserpine, active = significant at p<0.05, read-out: Res Prev (lowest active dose)
# Text: (§1) The ability of the compounds of this invention to potentiate catecholaminesand 5-hydroxytryptamine was examined using the test methods (1) and (2) below, respectively. These tests are indicative of anti-depressant activity.
# (1) Prevention of Reserpine-induced Hypothermia
# The method of Spencer in "Anti-Depressant Drugs: Proceedings of the 1st International Symposium", p 184-204. Ed. Garattini, S and Dukes MNG, Excerpta Med Foundation, Amsterdam, 1967, was used. Groups of 5 mice were given oral doses of the test compound 24 hours, 18 hours and 2 hours before an intravenous injection of 1 mg/kg reserpine base. The oral temperatures of the mice were taken immediately before the administration of the reserpine and 6 hours afterwards. Mean temperatures of groups given test compounds are compared with the mean temperatures of the reserpinised controls using the Students t test. Compounds causing significant difference at the level p<0.05 are considered active at that dose.
# mice [2] = assay: Potentiation of the Effects of 5-Hydroxytryptophan (anti-convulsant activity of 5 HTP, electroshock threshold); format: in vivo; settings: for ED100: Mus musculus, po, dose increasing the elevation of electroshock threshold due to 5HTP by 100%
# Protocol: as §1
# (2) Potentiation of the Effects of 5-Hydroxytryptophan
# 5 HTP Potentiation was measured in mice using the potentiation of the anti-convulsant activity of 5 HTP originally-described by Buus Lassen J., (1975), Psychopharmacol, 42, 21-6. Mice (10/group) were pretreated with the compounds under investigation and 30' later received a sub-threshold level dose of L-5 HTP (100 mg/kg ip). 30 minutes later they were subjected to electroshock and the shock level (in V) required to cause tonic extensor spasm in 50% of the mice determined for all groups.
# The dose of compounds required to increase the elevation of electroshock threshold due to 5HTP by 100% is determined graphically.
# [3] = biological target: T1, A-form of monoamine oxidase (Homo sapiens, UniProt P21397); assay: Monoamine oxidase A inhibition (other initial tests); format: biochemical
# T1 sequence (P21397 1-527): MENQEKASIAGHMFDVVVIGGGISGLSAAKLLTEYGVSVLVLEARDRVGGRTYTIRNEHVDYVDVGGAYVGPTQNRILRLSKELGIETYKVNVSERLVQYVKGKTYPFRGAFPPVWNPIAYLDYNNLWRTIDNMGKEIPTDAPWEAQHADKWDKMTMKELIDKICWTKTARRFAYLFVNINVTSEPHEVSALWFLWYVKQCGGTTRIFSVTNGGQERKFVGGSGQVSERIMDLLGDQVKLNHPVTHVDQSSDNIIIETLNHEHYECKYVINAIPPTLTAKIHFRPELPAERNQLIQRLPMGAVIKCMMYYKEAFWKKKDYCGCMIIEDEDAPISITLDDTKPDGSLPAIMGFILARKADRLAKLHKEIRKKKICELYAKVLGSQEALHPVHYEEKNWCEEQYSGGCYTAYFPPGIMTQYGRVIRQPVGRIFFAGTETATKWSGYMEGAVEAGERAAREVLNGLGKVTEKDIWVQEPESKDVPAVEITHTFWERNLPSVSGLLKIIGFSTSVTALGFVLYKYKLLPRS
# [4] = Acute toxicity (LD50) in mice; settings: mouse, in vivo, po
# mice [5] = assay: Acute toxicity (LD50) in mice; settings: initial tests
# [6] = read-out: 5-HTP Potentiation, ED100
Molecule,minimal effective dose (mice [1]) [mg/kg],ED100 (mice [2]; [6]) [mg/kg],other results
Cc1nccn1CCOc1ccc(F)cc1 [Example 4],100,,ED100 (mice [2]; read-out: 5 HTP pot ED100): 1 mg/kg
Cc1nccn1CCOc1cccc(Cl)c1 [Example 6],100,,ED100 (mice [2]; read-out: 5 HTP pot ED100): 7 mg/kg
Cc1nccn1CCOc1ccccc1Cl [Example 7],100,,
"Cc1cc(Cl)ccc1OCCn1ccnc1C [Example 18, 1-(4'-Chloro-2'-methylphenoxyethyl)-2-methylimidazole maleate]",,10,
"CCc1nccn1CCOc1ccc(Cl)cc1Cl [Example 23, 1-(2',4'-Dichlorophenoxyethyl)-2-ethylimidazole maleate]",,53,
"Cc1nccn1CCOc1cc(Cl)ccc1Cl [Example 13, l-(2',5'-Dichlorophenoxyethyl)-2-methylimidazole maleate]",,19,
"Cc1nccn1CCCCOc1ccc(Cl)cc1 [Example 3, 1-(4'-Chlorophenoxybutyl)-2-methyl imidazole]",100,,ED100 (mice [2]; read-out: 5 HTP pot ED100): 16 mg/kg
"Cc1nccn1CCOc1cc(Cl)c(Cl)c(Cl)c1 [Example 17, 1-(3',4',5'-Trichlorophenoxyethyl)-2-methylimidazole maleate]",,70,
"Cc1nccn1CCOc1cc(Cl)cc(Cl)c1.O=C(O)/C=C\C(=O)O [Example 11, 1-(3',5'Dichlorophenoxyethyl)-2-methylimidazole maleate]",,18,
"1-(2',4'-Dichlorophenoxyethyl)-4(5)-methylimidazole maleate [Example 22]",,,"5-HTP Potentiation, % Change of control at x mg/kg, p.o. (mice [2]; at 30 mg/kg p.o.): 138% at 30"
"Cc1nccn1CCOc1ccc(Cl)cc1Cl [formula (II)""]",,,inhibitor of the A-form of monoamine oxidase [3]: selective and reversible inhibitor; LD50 [4]: > 900 mg/kg; level of toxicity (mice [5]): low level of toxicity
"Cc1nccn1CCOc1cccc(C(F)(F)F)c1 [Example 21, 1-(3'-Trifluoromethylphenoxyethyl)-2-methylimidazole maleate]",,26,
"Cc1nccn1CCOc1cccc(Cl)c1Cl [Example 12, 1-(2',3'-Dichlorophenoxyethyl)-2-methylimidazole maleate]",,28,
COc1ccc(OCCn2ccnc2C)cc1 [Example 5],10,,
"Cc1nccn1CCOc1ccc(Cl)c(Cl)c1 [Example 10, 1-(3',4'-Dichlorophenoxyethyl)-2-methylimidazole]",,12,
"Cc1nccn1CCOc1ccc(Br)cc1Cl [Example 16, l-(4'-Bromo-2'-chlorophenoxyethyl)-2-methylimidazole maleate]",,,"5-HTP Potentiation, % Change of control at x mg/kg, p.o. (mice [2]; at 30 mg/kg p.o.): 96% at 30"
"Cc1cc(OCCn2ccnc2C)cc(C)c1Cl [Example 19, 1-(4'-Chloro-3',5'-dimethylphenoxyethyl)-2-methylimidazole maleate]",,,"5-HTP Potentiation, % Change of control at x mg/kg, p.o. (mice [2]; at 100 mg/kg p.o.): 77% at 100"
"Cc1nccn1CCOc1ccc(Cl)cc1Cl [Example 8, 1-(2',4'-Dichlorophenoxyethyl)-2-methylimidazole]",10,,ED100 (mice [2]; read-out: 5 HTP pot ED100): 20 mg/kg
"Cc1nccn1CCOc1ccc(Br)cc1Br.O=C(O)/C=C\C(=O)O [Example 15, 1-(2',4'-Dibromophenoxyethyl)-2-methylimidazole maleate]",,34,
"Cc1nccn1CCOc1c(Cl)cccc1Cl [Example 14, 1-(2',6'-Dichlorophenoxyethyl)-2-methylimidazole maleate]",,9,
"Cc1nccn1CCOc1ccc(Cl)cc1 [Example 1, 1-(4'-Chlorophenoxyethyl)-2-methyl imidazole]",10,,ED100 (mice [2]; read-out: 5 HTP pot ED100): 5 mg/kg
"Cc1nccn1CCCOc1ccc(Cl)cc1 [Example 2, 1-(4'-Chlorophenoxypropyl)-2-methyl imidazole]",3,,ED100 (mice [2]; read-out: 5 HTP pot ED100): 3 mg/kg
"Cc1nccn1CCOc1ccccc1 [Example 20, 1-(2'-Phenoxyethyl)-2-methylimidazole]",,10,
Cc1nccn1CCCOc1ccc(F)cc1 [Example 9],,,ED100 (mice [2]; read-out: 5 HTP pot ED100): 10 mg/kg
